From patent publication US20110190365A1, “Insecticidal 4-phenyl-1H-pyrazoles” (Bayer Crop Science AG, priority 2008, published 2011)

Test: log P by HPLC on a reversed-phase column (C18), EEC Directive 79/831 Annex V.A8
Format: physicochemical
Details: HCOOH
Experimental: The stated log P values were determined in accordance with EEC Directive 79/831 Annex V.A8 by HPLC (High Performance Liquid Chromatography) using a reversed-phase column (C18).

Row | Compound | log P (HCOOH)
1 | CNC(=O)c1ccc(-n2nc(C(F)(F)F)c(-c3cc(Cl)cc(Cl)c3)c2N)cc1 [I-A-Q2-193] | I-A-Q2-193: log P (HCOOH): 3.42
2 | Cc1cc(-n2nc(C(F)(F)F)c(-c3cc(Cl)cc(Cl)c3)c2N)ccc1C(=O)NC1CC1 [I-A-Q2-228] | I-A-Q2-228: log P (HCOOH): 3.78
3 | Cc1cc(CNC(=O)c2ccc(-n3nc(C(F)(F)F)c(-c4cc(Cl)cc(Cl)c4)c3N)cc2C)[nH]n1 [I-A-Q2-259] | I-A-Q2-259: log P (HCOOH): 3.33
4 | Cc1cc(-n2nc(C(F)(F)F)c(-c3cc(Cl)cc(Cl)c3)c2N)ccc1C(=O)NCc1cn(C)cn1 [I-A-Q2-058] | I-A-Q2-058: log P (HCOOH): 1.94
5 | Cc1cc(-n2nc(C(F)(F)F)c(-c3cc(Cl)cc(Cl)c3)c2N)ccc1C(=O)NCC(F)(F)Br [I-A-Q2-268] | I-A-Q2-268: log P (HCOOH): 4.45
6 | CCC(NC(=O)c1ccc(-n2nc(C(F)(F)F)c(-c3cc(Cl)cc(Cl)c3)c2N)cc1C)C(F)(F)F (centres unmarked) [I-A-Q2-200] | I-A-Q2-200: log P (HCOOH): 4.82
7 | Cc1cc(-n2nc(C(F)(F)F)c(-c3cc(Cl)cc(Cl)c3)c2N)ccc1C(=O)NCc1ccc(C(F)(F)F)nc1 [I-A-Q2-060] | I-A-Q2-060: log P (HCOOH): 4.34
8 | Cc1nccc(CNC(=O)c2ccc(-n3nc(C(F)(F)F)c(-c4cc(Cl)cc(Cl)c4)c3N)cc2C)n1 [I-A-Q2-258] | I-A-Q2-258: log P (HCOOH): 3.47
9 | Cc1cc(-n2nc(C(F)(F)F)c(-c3cc(Cl)cc(Cl)c3)c2N)ccc1C(=O)NC(C)C1(Cl)CC1 (centres unmarked) [I-A-Q2-261] | I-A-Q2-261: log P (HCOOH): 4.76
10 | Cc1cc(-n2nc(C(F)(F)F)c(-c3ccc(Cl)cc3Cl)c2N)ccc1C(=O)NCC1CC1 [I-A-Q2-410] | I-A-Q2-410: log P (HCOOH): 3.94
11 | Nc1c(-c2cc(Cl)cc(Cl)c2)c(C(F)(F)F)nn1-c1ccc(C(=O)NCC(F)(F)C(F)F)c(C(F)(F)F)c1 [I-A-Q2-385] | I-A-Q2-385: log P (HCOOH): 4.60
12 | Cc1cc(-n2nc(C(F)(F)F)c(-c3cc(Cl)cc(Cl)c3)c2N)ccc1C(=O)NC(c1ccccc1)C(F)(F)F (centres unmarked) [I-A-Q2-241] | I-A-Q2-241: log P (HCOOH): 4.89
13 | Cc1cc(-n2nc(C(F)(F)F)c(-c3cccc(Br)c3)c2N)ccc1C(=O)NCC1CC1 [I-A-Q2-416] | I-A-Q2-416: log P (HCOOH): 3.81
14 | Cc1cc(-n2nc(C(F)(F)F)c(Cl)c2N)ccc1C(=O)NCc1ccccn1 [XI-A-091] | XI-A-091: log P (HCOOH): 1.94
15 | Cc1cc(-n2nc(C)c(-c3c(Cl)cccc3Cl)c2N)ccc1C(=O)NCC(F)(F)C(F)F [I-A-Q2-336] | I-A-Q2-336: log P (HCOOH): 2.76
16 | Cc1cc(-n2nc(C(F)(F)F)c(-c3cc(Cl)cc(Cl)c3)c2N)ccc1C(=O)NC(C)c1cccnc1 (centres unmarked) [I-A-Q2-231] | I-A-Q2-231: log P (HCOOH): 2.69
17 | Cc1cc(-n2nc(C(F)(F)F)c(-c3cc(Cl)cc(Cl)c3)c2N)ccc1C(=O)NC(C)c1nccc2ccccc12 (centres unmarked) [I-A-Q2-256] | I-A-Q2-256: log P (HCOOH): 4.64

Row | Compound | log P (HCOOH)
18 | Cc1cc(-n2nc(C(F)(F)F)c(-c3ccccc3Cl)c2N)ccc1C(=O)NCC(F)(F)C(F)F [I-A-Q2-308] | I-A-Q2-308: log P (HCOOH): 3.23
19 | Cc1cc(-n2nc(C(F)(F)F)c(-c3cc(Cl)cc(Cl)c3)c2N)ccc1C(=O)NCc1ncc(F)cc1F [I-A-Q2-278] | I-A-Q2-278: log P (HCOOH): 4.30
20 | Cc1cc(-n2nc(C(F)(F)F)c(-c3cc(Cl)cc(Cl)c3)c2I)ccc1C(=O)NCc1ncccn1 [I-A-Q2-275] | I-A-Q2-275: log P (HCOOH): 4.47
21 | Cc1cc(-n2nc(C(F)(F)F)c(-c3cc(Cl)cc(Cl)c3)c2N)ccc1C(=O)NCc1ncc(Cl)cc1C(F)(F)F [I-A-Q2-235] | I-A-Q2-235: log P (HCOOH): 4.95
22 | Cc1cc(-n2nc(C(F)(F)F)c(-c3cc(Cl)c4c(c3)OCO4)c2N)ccc1C(=O)NCC(F)(F)C(F)F [I-A-Q2-293] | I-A-Q2-293: log P (HCOOH): 3.11
23 | CCC(NC(=O)c1ccc(-n2nc(C(F)(F)F)c(-c3cc(Cl)cc(Cl)c3)c2N)cc1)C(F)(F)F (centres unmarked) [I-A-Q2-067] | I-A-Q2-067: log P (HCOOH): 4.65
24 | Cc1cc(-n2nc(C(F)(F)F)c(-c3cc(Cl)cc(Cl)c3)c2N)ccc1C(=O)NCc1cccc(N2CCOCC2)n1 [I-A-Q2-280] | I-A-Q2-280: log P (HCOOH): 3.96
25 | Cc1cc(-n2nc(C(F)(F)F)c(-c3cc(C(F)(F)F)cc(C(F)(F)F)c3)c2N)ccc1C(=O)NCc1ccccn1 [I-A-Q2-360] | I-A-Q2-360: log P (HCOOH): 3.47
26 | CC(NC(=O)c1ccc(-n2nc(-c3ccccc3)c(-c3ccc(Cl)cc3)c2N)cc1)C(F)(F)F (centres unmarked) [I-A-Q2-075] | I-A-Q2-075: log P (HCOOH): 3.94
27 | Nc1c(-c2ccc(Cl)c(F)c2)c(C(F)(F)F)nn1-c1ccc(C(=O)NC2CC2)cc1 [I-A-Q2-170] | I-A-Q2-170: log P (HCOOH): 3.15
28 | Cc1cc(-n2nc(C(F)(F)F)c(-c3cc(Cl)cc(Cl)c3)c2Br)ccc1C(=O)NCc1ccccn1 [I-A-Q2-023] | I-A-Q2-023: log P (HCOOH): 4.91
29 | Cc1cc(-n2nc(C(F)(F)Oc3cccc(Cl)c3)c(-c3cc(Cl)cc(C(F)(F)F)c3)c2N)ccc1C(=O)NCC(F)(F)C(F)F [I-A-Q2-297] | I-A-Q2-297: log P (HCOOH): 4.95
30 | Cc1cc(-n2nc(C(F)(F)F)c(-c3ccc(Cl)cc3)c2N)ccc1C(=O)NCc1ccccn1 [I-A-Q2-345] | I-A-Q2-345: log P (HCOOH): 2.69
31 | Cc1cc(-n2nc(C(F)(F)F)c(-c3cc(Cl)cc(Cl)c3)c2N)ccc1C(=O)NC1COC1 [I-A-Q2-044] | I-A-Q2-044: log P (HCOOH): 3.42
32 | Cc1cc(-n2nc(C(F)(F)F)c(-c3cc(Cl)cc(Cl)c3)c2N)ccc1C(=O)N(C)Cc1ccccn1 [I-A-Q2-110] | I-A-Q2-110: log P (HCOOH): 2.69
33 | CC(NC(=O)c1ccc(-n2nc(C(F)(F)F)c(-c3ccc(F)c(F)c3)c2N)cc1)C(F)(F)F (centres unmarked) [I-A-Q2-175] | I-A-Q2-175: log P (HCOOH): 3.47
34 | Cc1cc(-n2nc(C(F)(F)F)c(-c3cc(F)c(F)c(F)c3)c2N)ccc1C(=O)NCC(F)(F)C(F)F [I-A-Q2-316] | I-A-Q2-316: log P (HCOOH): 3.65

Same assay, conditions: HCOOH; Table 4, compounds of formula I-A-Q4

Row | Compound | log P (HCOOH)
35 | FC(F)(F)c1nn(-c2ccc(I)cc2)c(Br)c1-c1cc(Cl)cc(Cl)c1 [I-A-Q4-017] | I-A-Q4-017: log P (HCOOH): 6.71
36 | Nc1c(-c2c(F)cc(F)cc2F)c(C(F)(F)F)nn1-c1ccc(Cl)cn1 [I-A-Q4-046] | I-A-Q4-046: log P (HCOOH): 4.46
37 | CN(C)C=Nc1c(-c2ccc(Cl)cc2)c(C(F)(F)F)nn1-c1ncc(Cl)cn1 [I-A-Q4-015] | I-A-Q4-015: log P (HCOOH): 3.47
38 | Nc1c(-c2ccc(Cl)cc2Cl)c(C(F)(F)F)nn1-c1ccc(C(=O)O)cc1 [I-A-Q4-095] | I-A-Q4-095: log P (HCOOH): 3.44
39 | Nc1c(-c2ccc(F)cc2F)c(C(F)F)nn1-c1ccc(Cl)cn1 [I-A-Q4-056] | I-A-Q4-056: log P (HCOOH): 3.84
40 | Nc1c(-c2ccc(Cl)cc2)c(-c2ccccc2)nn1-c1ccc(Cl)cn1 [I-A-Q4-028] | I-A-Q4-028: log P (HCOOH): 5.64
41 | Cc1nn(-c2ccc(Cl)cn2)c(N)c1-c1c(F)cccc1F [I-A-Q4-036] | I-A-Q4-036: log P (HCOOH): 3.58
42 | Nc1c(-c2ccc(Cl)cc2)c(C(F)(F)C(F)(F)F)nn1-c1ccc(Cl)cn1 [I-A-Q4-058] | I-A-Q4-058: log P (HCOOH): 5.44
43 | Nc1c(-c2ccc(Cl)c(Cl)c2)c(C(F)(F)F)nn1-c1ccc(Cl)cn1 [I-A-Q4-043] | I-A-Q4-043: log P (HCOOH): 5.44
44 | CNc1cc(-n2nc(C(F)(F)F)c(-c3cc(Cl)cc(Cl)c3)c2N)ccc1C(=O)O [I-A-Q4-120] | I-A-Q4-120: log P (HCOOH): 4.11

Same assay, conditions: HCOOH; Table 6, compounds of formula I-B-Q2

Row | Compound | log P (HCOOH)
45 | CC(NC(=O)c1ccc(-n2cc(-c3cc(Cl)cc(Cl)c3)c(C(F)(F)F)n2)c2ccccc12)C(F)(F)F (centres unmarked) [I-B-Q2-001] | I-B-Q2-001: log P (HCOOH): 4.74

Same assay, conditions: HCOOH; compounds of the formula (IX), Table 11

Row | Compound | log P (HCOOH)
46 | Nc1[nH]nc(C(F)(F)F)c1-c1ccc(Cl)c(Cl)c1 [IX-38] | IX-38: log P (HCOOH): 2.80

Same assay, conditions: HPLC, reversed-phase C18, mobile phase with formic acid

Row | Compound | log P (HCOOH)
47 | N#Cc1cc(-n2nc(C(F)(F)F)c(-c3ccc(Cl)cc3Cl)c2N)ccc1-n1cncn1 [I-A-Q1-045] | I-A-Q1-045: log P (HCOOH): 2.64
48 | COc1ccc(-c2c(C)nn(-c3ccc(-n4cncn4)c(C#N)c3)c2N)cc1 [I-A-Q1-058] | I-A-Q1-058: log P (HCOOH): 2.11
49 | Nc1c(-c2cc(Cl)cc(Cl)c2)c(C(F)(F)F)nn1-c1ccc(CNC(=O)C2CC2)c(Cl)c1 [I-A-Q3-022] | I-A-Q3-022: log P (HCOOH): 4.12
50 | Cc1cc(C)cc(-c2c(C(F)(F)F)nn(-c3ccc(-n4cncn4)c(C#N)c3)c2N)c1 [I-A-Q1-038] | I-A-Q1-038: log P (HCOOH): 3.33
51 | N#Cc1cc(-n2nc(C(F)(F)F)c(-c3cc(Cl)cc(Cl)c3)c2N)ccc1-n1ccnc1 [I-A-Q1-076] | I-A-Q1-076: log P (HCOOH): 2.98
52 | COC(C)c1nn(-c2ccc(-n3cncn3)c(C#N)c2)c(N)c1-c1cc(Cl)cc(C(F)(F)F)c1 (centres unmarked) [I-A-Q1-023] | I-A-Q1-023: log P (HCOOH): 2.76
53 | CCCc1nn(-c2ccc(-n3cncn3)c(C#N)c2)c(N)c1-c1ccc(Cl)cc1 [I-A-Q1-065] | I-A-Q1-065: log P (HCOOH): 3.33
54 | N#Cc1cc(-n2nc(C(F)(F)F)c(-c3cc(Cl)cc(Cl)c3)c2N)ccc1-n1cccn1 [I-A-Q1-082] | I-A-Q1-082: log P (HCOOH): 4.34
55 | Cc1nn(-c2ccc(-n3cncn3)c(C#N)c2)c(N)c1-c1c(Cl)cccc1Cl [I-A-Q1-055] | I-A-Q1-055: log P (HCOOH): 2.47
56 | Cc1ccccc1-c1c(C(F)(F)F)nn(-c2ccc(-n3cncn3)c(C#N)c2)c1N [I-A-Q1-039] | I-A-Q1-039: log P (HCOOH): 2.89
